Experiments:
Cdk5/p25 = Cdk5/p25 (Homo sapiens, UniProt Q00535); experiment: Cdk5 kinase assay (ADP-Glo) with Cdk5/p25 complex; format: biochemical; settings: 10 μM ATP, histone substrate, inhibitor 0-100 nM
Experimental: (§1) The test tube Cdk5 Kinase assay was performed utilizing Cdk5/p35 and Cdk5/p25 complexes as kinases, following the modified procedure outlined in a previous study,[52] using a Promega ADP-GloTM Kinase Assay kit. The reaction was carried out with 10 μM ATP and 2 μg of histone as the substrate for Cdk5 complexes. To study the inhibition patterns, 19 Cdk5 inhibitors (BLINK1-19) identified through molecular docking were added to the Cdk5 kinase reaction in increasing concentrations ranging from 0 to 100 nM. The IC50 (half-maximal inhibitory concentration) values of all the inhibitors were calculated based on Log(inhibitor) vs. normalized response using GraphPad software.

Cdk5/p35 = Cdk5/p35 (Homo sapiens, UniProt Q00535); experiment: Cdk5 kinase assay (ADP-Glo) with Cdk5/p35 complex; format: biochemical; settings: 10 μM ATP, histone substrate, inhibitor 0-100 nM
Experimental: as §1

Chain of Cdk5/p35 (Q00535 whole entry, species assumed): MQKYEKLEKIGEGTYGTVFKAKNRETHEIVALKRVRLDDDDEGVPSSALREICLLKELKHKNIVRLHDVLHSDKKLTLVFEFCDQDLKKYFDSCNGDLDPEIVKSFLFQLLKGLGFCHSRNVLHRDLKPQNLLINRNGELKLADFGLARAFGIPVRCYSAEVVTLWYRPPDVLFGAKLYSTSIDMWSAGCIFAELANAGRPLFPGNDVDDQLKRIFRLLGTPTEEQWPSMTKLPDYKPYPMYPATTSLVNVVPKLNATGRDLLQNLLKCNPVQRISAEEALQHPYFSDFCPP
Chain of Cdk5/p35 (Q15078 whole entry partner, species assumed): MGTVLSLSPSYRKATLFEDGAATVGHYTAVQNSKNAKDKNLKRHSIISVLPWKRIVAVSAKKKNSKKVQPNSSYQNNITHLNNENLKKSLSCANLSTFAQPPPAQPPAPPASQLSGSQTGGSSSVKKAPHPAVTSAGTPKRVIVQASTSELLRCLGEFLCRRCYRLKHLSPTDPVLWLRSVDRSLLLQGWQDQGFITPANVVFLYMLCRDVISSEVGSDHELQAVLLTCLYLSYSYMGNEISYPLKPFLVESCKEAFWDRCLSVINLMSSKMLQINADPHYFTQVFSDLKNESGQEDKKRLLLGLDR
Chain of Cdk5/p25 (Q00535 whole entry, species assumed): as the sequence (Q00535 whole entry, species assumed) above
Chain of Cdk5/p25 (Q15078 99-307 partner limits assumed, species assumed): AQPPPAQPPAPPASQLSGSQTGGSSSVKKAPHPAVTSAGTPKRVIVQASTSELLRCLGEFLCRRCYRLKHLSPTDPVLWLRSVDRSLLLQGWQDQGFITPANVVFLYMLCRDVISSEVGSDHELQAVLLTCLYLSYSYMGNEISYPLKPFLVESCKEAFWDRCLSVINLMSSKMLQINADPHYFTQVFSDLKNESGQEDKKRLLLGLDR

## CC1(C)Cc2c(sc3nc(SCC(=O)O)[nH]c(=O)c23)CO1 [BLINK1]
Cdk5/p25
  IC50: 18.4 nM
Cdk5/p35
  IC50: 19.2 nM

## COc1ccc(C(=O)CSc2nc3sc(C)c(C)c3c(=O)[nH]2)cc1C [BLINK2]
Cdk5/p25
  IC50: 33.5 nM
Cdk5/p35
  IC50: 92.6 nM

## Cc1ccc(-c2csc(Cc3nc(-c4cc5ccccc5oc4=O)cs3)n2)cc1 [BLINK3]
Cdk5/p25
  IC50: 71.3 nM
Cdk5/p35
  IC50: 68.7 nM

## O=C(Nc1ccc(Cl)cc1C(=O)NCCO)c1ccc(Cl)cc1Cl [BLINK4]
Cdk5/p25
  IC50: 16.9 nM
Cdk5/p35
  IC50: 27.7 nM

## CN(C)C(=O)CSc1nc2sc3c(c2c(=O)[nH]1)CCCC3 [BLINK5]
Cdk5/p25
  IC50: 17.5 nM
Cdk5/p35
  IC50: 16.9 nM

## OCCCNc1nc(-c2ccccc2Cl)c2cc(Br)ccc2n1 [BLINK6]
Cdk5/p25
  IC50: 141 nM
Cdk5/p35
  IC50: 183 nM

## Cc1nnc(SCC(=O)Nc2nsc(-c3ccc(Cl)cc3)n2)s1 [BLINK7]
Cdk5/p25
  IC50: 97 nM
Cdk5/p35
  IC50: 85.2 nM

## Cc1ccc2nc(Nc3nc(O)cc(CSc4nnc(C)s4)n3)nc(C)c2c1 [BLINK8]
Cdk5/p25
  IC50: 108 nM
Cdk5/p35
  IC50: 50.6 nM

## CCOC(=O)c1cnc(Nc2nc3ccccc3o2)nc1CSc1nnc(C)s1 [BLINK9]
Cdk5/p25
  IC50: 35.1 nM
Cdk5/p35
  IC50: 54.1 nM

## O=C(CSc1nnc(-c2ccccc2Cl)[nH]1)c1ccc(O)c(O)c1 [BLINK13]
Cdk5/p25
  IC50: 41.5 nM
Cdk5/p35
  IC50: 20.1 nM

## Cc1cc(C)c2nc(-c3cccnc3)cc(C(=O)Nc3sc(Cc4ccccc4)cc3C(N)=O)c2c1 [BLINK14]
Cdk5/p25
  IC50: 23.1 nM
Cdk5/p35
  IC50: 24.8 nM

## Clc1ccc2nc(SCc3csc(Nc4ccccc4)n3)oc2c1 [BLINK16]
Cdk5/p25
  IC50: 21.2 nM
Cdk5/p35
  IC50: 28 nM

## O=C(CSc1n[nH]c(-c2ccc(Cl)cc2)n1)N[C@H]1C[C@@H]2CC[C@H]1C2 [BLINK17]
Cdk5/p25
  IC50: 43.2 nM
Cdk5/p35
  IC50: 63.2 nM

## O=C1c2cccc3cccc(c23)C(=O)N1CCCSc1n[nH]c(-c2ccc(F)cc2)n1 [BLINK18]
Cdk5/p25
  IC50: 32.1 nM
Cdk5/p35
  IC50: 57.2 nM

## CC1CCc2c(sc3nc(CCl)ncc23)C1 (stereo not drawn) [BLINK19]
Cdk5/p25
  IC50: 48.1 nM
Cdk5/p35
  IC50: 55.3 nM
